Test results from ChEMBL document CHEMBL1201862, “PubChem BioAssay data set” (2004).
Calls of active or inactive are those of the source.

What was measured:
[1] = molecular target: T1, Replicative DNA helicase DnaB (Mycobacterium tuberculosis, UniProt P9WMR3); experiment: DnaB intein splicing inhibitors, dose response, biochemical, cell-free fluorescence (AID 449749); format: functional
T1 sequence (P9WMR3 whole entry): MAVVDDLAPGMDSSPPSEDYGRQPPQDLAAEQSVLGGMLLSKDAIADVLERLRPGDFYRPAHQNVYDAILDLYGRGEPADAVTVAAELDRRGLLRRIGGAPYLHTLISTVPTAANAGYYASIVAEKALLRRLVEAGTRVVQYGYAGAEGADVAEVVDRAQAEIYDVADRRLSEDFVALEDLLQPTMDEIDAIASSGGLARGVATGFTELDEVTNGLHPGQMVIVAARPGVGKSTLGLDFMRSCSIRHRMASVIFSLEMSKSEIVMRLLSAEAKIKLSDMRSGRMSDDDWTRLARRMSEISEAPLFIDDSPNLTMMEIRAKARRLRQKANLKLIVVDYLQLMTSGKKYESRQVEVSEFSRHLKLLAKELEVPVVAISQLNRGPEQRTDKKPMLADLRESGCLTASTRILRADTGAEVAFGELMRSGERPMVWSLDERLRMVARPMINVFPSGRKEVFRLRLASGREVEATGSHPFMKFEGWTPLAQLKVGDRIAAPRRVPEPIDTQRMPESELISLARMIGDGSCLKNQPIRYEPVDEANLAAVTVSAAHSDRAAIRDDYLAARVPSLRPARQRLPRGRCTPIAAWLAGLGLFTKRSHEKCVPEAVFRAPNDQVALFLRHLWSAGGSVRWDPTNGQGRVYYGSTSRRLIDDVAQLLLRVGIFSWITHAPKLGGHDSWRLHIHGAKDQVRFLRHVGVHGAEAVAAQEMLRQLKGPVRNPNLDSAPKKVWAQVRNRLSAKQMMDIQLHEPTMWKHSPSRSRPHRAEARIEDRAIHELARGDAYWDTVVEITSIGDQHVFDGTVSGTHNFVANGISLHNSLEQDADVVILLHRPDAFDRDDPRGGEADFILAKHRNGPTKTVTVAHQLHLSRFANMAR

Protein RecA = molecular target: T2, Protein RecA (Mycobacterium tuberculosis, UniProt P9WHJ3); experiment: Fluorescence Cell-Free Homogeneous Dose Retest to Identify Inhibitors of RecA-Intein Splicing Activity. [Related pubchem assays (depositor defined):AID2097, AID2223, AID489010, AID492950]; format: functional
T2 sequence (P9WHJ3 whole entry): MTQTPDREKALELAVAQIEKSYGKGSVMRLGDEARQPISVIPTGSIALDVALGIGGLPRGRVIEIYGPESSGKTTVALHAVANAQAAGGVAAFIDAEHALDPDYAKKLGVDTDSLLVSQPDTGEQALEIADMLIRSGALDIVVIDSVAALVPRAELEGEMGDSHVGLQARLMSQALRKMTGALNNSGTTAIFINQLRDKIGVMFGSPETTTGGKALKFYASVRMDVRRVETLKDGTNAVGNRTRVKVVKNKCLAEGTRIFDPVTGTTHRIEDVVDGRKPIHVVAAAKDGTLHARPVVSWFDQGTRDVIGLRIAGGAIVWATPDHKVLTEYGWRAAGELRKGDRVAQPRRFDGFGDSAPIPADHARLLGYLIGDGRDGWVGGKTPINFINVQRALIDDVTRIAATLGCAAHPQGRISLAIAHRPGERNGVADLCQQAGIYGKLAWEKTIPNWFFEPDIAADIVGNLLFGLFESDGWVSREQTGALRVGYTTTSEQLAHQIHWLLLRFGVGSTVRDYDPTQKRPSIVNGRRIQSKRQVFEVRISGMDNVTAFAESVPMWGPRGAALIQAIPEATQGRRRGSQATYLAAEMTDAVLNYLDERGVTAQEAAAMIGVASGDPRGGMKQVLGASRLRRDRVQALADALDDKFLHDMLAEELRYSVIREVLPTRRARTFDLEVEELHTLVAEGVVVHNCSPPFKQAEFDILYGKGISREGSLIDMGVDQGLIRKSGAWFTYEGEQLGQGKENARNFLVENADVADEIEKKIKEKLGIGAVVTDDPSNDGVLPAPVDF

Cytochrome P450 2C19 = Cytochrome P450 2C19 (Homo sapiens, UniProt P33261); experiment: Cytochrome panel assay with activity outcomes. Panel member name: p450-cyp2c19 Compounds with AC50 equal or less than 10 uM are considered active; format: functional
Cytochrome P450 1A2 = molecular target: T3, Cytochrome P450 1A2 (Homo sapiens, UniProt P05177);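 also: PubChem cytochrome P450 panel assay, CYP1A2 panel member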
T3 sequence (P05177 whole entry): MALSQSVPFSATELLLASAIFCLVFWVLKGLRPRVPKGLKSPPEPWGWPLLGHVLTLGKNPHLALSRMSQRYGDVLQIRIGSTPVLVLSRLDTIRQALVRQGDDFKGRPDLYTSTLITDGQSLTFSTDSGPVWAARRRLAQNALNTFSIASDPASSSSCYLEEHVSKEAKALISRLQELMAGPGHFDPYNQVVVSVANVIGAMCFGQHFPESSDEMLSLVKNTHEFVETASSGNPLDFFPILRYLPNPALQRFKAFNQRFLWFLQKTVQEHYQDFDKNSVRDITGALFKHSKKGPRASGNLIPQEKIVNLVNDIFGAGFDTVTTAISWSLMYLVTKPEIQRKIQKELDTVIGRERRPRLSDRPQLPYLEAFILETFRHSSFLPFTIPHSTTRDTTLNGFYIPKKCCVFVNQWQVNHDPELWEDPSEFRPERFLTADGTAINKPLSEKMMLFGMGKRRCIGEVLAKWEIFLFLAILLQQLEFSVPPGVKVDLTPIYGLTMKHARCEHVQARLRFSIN

[2] = inhibitors of intracellular T. cruzi replication, confirmation, NIH3T3 host cells, beta-gal luminescence (AID 2044); format: functional, cell-based;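 also: intracellular parasites grown in NIH/3T3 mouse fibroblasts as host cells; luminescent beta-galactosidase reporter signal from transgenic T. cruzi replicating inside host cells; inhibitors lower the luminescence signal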
[3] = cytotoxicity toward NIH3T3 fibroblasts, dose response, counter-screen, cell-based, ATP luminescence, mouse fibroblasts (AID 2010); format: functional;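 also: cells exposed to compound for about 90 hours before reading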
INS1 = experiment: beta cell apoptosis inhibitors, cytokine rescue, dose response, luminescence, retest (AID 449756); format: functional, cell-based; details: Rattus norvegicus;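 also: cell death triggered by IL-1 beta plus TNF-alpha plus IFN-gamma mixture; protective hits raise ATP signal compared with cytokine alone wells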
[4] = system: Streptococcus sp. 'group A'; experiment: growth inhibition of control SK(-) GAS strain, dose response, counter-screen for streptokinase expression inhibitor project, luminescence, kanamycin, BacTiterGlo, confirmation (AID 1900); format: functional, organism-based
Streptococcus = experiment: Group A Streptococcus viability loss, dose response, counter-screen for streptokinase expression inhibitor project, luminescence, BacTiterGlo (AID 1915); format: functional, organism-based;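 also: potency for reduction of bacterial viability or growth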

Chain of Cytochrome P450 2C19 (P33261 whole entry): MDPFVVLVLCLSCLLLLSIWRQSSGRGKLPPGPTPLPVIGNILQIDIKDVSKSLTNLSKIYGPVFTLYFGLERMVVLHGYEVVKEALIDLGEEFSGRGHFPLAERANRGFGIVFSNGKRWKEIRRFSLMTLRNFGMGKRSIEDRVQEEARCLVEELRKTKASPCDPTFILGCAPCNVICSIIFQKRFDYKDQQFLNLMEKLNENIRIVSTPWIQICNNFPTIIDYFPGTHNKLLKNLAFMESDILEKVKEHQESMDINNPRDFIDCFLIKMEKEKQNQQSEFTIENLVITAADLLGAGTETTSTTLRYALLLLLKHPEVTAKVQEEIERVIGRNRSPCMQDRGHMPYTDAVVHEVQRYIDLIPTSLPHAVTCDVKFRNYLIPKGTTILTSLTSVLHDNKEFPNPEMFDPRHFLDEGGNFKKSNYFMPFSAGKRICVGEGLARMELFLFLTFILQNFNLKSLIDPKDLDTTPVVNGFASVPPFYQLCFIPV

CC(C)(C)Nc1nc(Cl)nc(N(C#N)CN2C(=O)c3ccccc3S2(=O)=O)n1
AC50 [1]: 15.5 µM (active)
EC50 (Protein RecA): 18.4 µM (active)

O=C(OCC1CC(c2ccccc2)=NO1)c1ccc(Cl)cc1 (stereo not given)
AC50 (Cytochrome P450 2C19; read-out: AC50): 7.08 µM (inconclusive)
AC50 (Cytochrome P450 1A2): 2.82 µM (inconclusive)

COC(=O)[C@@]1(Cc2ccccc2)[C@@H]2C(=CC(=O)[C@H]2CC(=O)C(=O)N(C)C)CN1C(=O)c1ccccc1
AC50 [1]: < 0.018 µM (active)
EC50 (Protein RecA): 5.12 µM (active)

N=C(N)SCCCN
AC50 (Cytochrome P450 2C19): inconclusive
AC50 (Cytochrome P450 1A2): 6.31 µM (inconclusive)

COc1ccccc1NC(=O)CCN1C(=O)C2CC=C(Cl)CC2C1=O (stereo not given)
AC50 (Cytochrome P450 2C19; read-out: AC50): 7.94 µM (inconclusive)

O=C(c1ccc([N+](=O)[O-])s1)N1CCc2ccccc2C1
EC50 [2]: 0.476 µM (active)
EC50 [3]: > 60 µM (not active)

Fc1ccc(N/N=C/c2ccc(N3CCOCC3)cc2)c(F)c1
EC50 [2]: 0.406 µM (active)
EC50 [3]: > 30 µM (not active)

O=[N+]([O-])c1ccc2c(OCc3nnc(-c4ccccc4Br)o3)ncnc2c1
EC50 [2]: 0.213 µM (active)
EC50 [3]: 10.4 µM (active)

CCSC1=NCCN1C(=O)C(C)(C)Oc1ccc(Cl)cc1
AC50 (INS1): > 260 µM (inactive)

COc1ccc(NC(=O)N2CCCC3(CCNCC3)C2)cc1
AC50 (Cytochrome P450 2C19): inconclusive

CS(=O)(=O)Nc1cccc(-c2ccc3ncnc(NC4CCNCC4)c3c2)c1
AC50 (Cytochrome P450 1A2): 31.6 µM (inconclusive)

O=[N+]([O-])c1c(NCc2ccco2)ccc2nonc12
AC50 [1]: 8.52 µM (active)
EC50 (Protein RecA): 10.1 µM (active)

COCc1c(Br)c(C)nc(OCC(=O)N/N=C/c2cc(C)n(-c3ccc([N+](=O)[O-])cc3)c2C)c1C#N
EC50 [2]: 1.95 µM (active)
EC50 [3]: > 60 µM (not active)

Cc1cc[n+](CC(=O)Nc2cc(C(F)(F)F)ccc2Cl)cc1
AC50 (Cytochrome P450 2C19; read-out: AC50): 3.98 µM (inconclusive)
AC50 (Cytochrome P450 1A2): 15.8 µM (inconclusive)

O=C(Nc1nc(-c2ccccc2)c(-c2ccccc2)s1)c1ccc(S(=O)(=O)N(CCCl)CCCl)cc1
EC50 [2]: 1.25 µM (active)
EC50 [3]: > 30 µM (not active)

CCCCCCSc1ccc(-c2nc3ccc(C)cn3c2NCc2ccccc2)cc1OC
EC50 [2]: 0.701 µM (active)
EC50 [3]: 8.59 µM (active)

CCCC(=O)N(CCN(C(=O)CCC)c1ccccc1)c1ccccc1
AC50 (INS1): 183 µM (active)

Cc1ccc(C(=O)n2cnc3ccccc32)cc1C
AC50 [1]: 37.7 µM (active)
EC50 (Protein RecA): 124 µM (active)

CCOC(=O)Nc1ccc2c(c1)N(C(=O)CCN(C)C)c1ccccc1S2
EC50 [2]: 1.8 µM (active)
EC50 [3]: > 60 µM (not active)

Cc1cc(C)c(C#N)c(Oc2ccc(F)cc2)n1
AC50 (Cytochrome P450 2C19; read-out: AC50): 39.8 µM (inconclusive)

Cc1cc(C(F)(F)F)c2c(n1)sc1c(O)cc(O)nc12
EC50 [4]: 27.8 µM (active)
EC50 (Streptococcus): > 150 µM (not active)

COc1ccc(/C=C2\CCCc3c2nc2ccccc2c3C(=O)OCC(=O)c2c(N)n(C)c(=O)n(C)c2=O)cc1
EC50 [2]: 1.05 µM (active)
EC50 [3]: > 60 µM (not active)

O=C(c1cccc(C(F)(F)F)c1)C1CCCN(Cc2ncc[nH]2)C1 (stereo not given)
AC50 [1]: > 380 µM (inactive)
EC50 (Protein RecA): > 380 µM (inactive)

CCN(CC)CCNc1c2c(c(C#N)c3nc4ccccc4n13)CCCC2
EC50 [2]: 0.226 µM (active)
EC50 [3]: > 60 µM (not active)

NC(=S)N/N=C/c1ccc(-c2cc(Cl)c(Cl)cc2Cl)o1
EC50 [2]: 0.122 µM (active)
EC50 [3]: > 60 µM (inconclusive)

CC(C)=NO[C@@H](C)c1cn([C@@H]2COC[C@@H]2O)nn1
AC50 (Cytochrome P450 2C19): inconclusive

CCCC(=O)NNC(=O)Nc1ccccc1
AC50 (Cytochrome P450 2C19; read-out: AC50): 28.2 µM (inconclusive)

Cc1nc2ncnn2c(O)c1NC(=O)CC12CC3CC(CC(C3)C1)C2
AC50 (Cytochrome P450 2C19; read-out: AC50): 44.7 µM (inconclusive)

Cc1cc(C(=O)NNC(=S)NC(C)c2ccccc2)c2ccccc2n1 (stereo not given)
AC50 (Cytochrome P450 2C19; read-out: AC50): 22.4 µM (inconclusive)
AC50 (Cytochrome P450 1A2): 31.6 µM (inconclusive)

CN1CCN(c2ccc([N+](=O)[O-])c3[nH]o[n+](=O)c23)CC1
AC50 (Cytochrome P450 1A2): 0.398 µM (inconclusive)

N#Cc1cnn(-c2nc(SCc3ccccc3)nc3sc4c(c23)CCCC4)c1N
EC50 [2]: 2.24 µM (active)
EC50 [3]: > 60 µM (not active)

CC1CC(=O)c2cnc(N)nc2C1 (stereo not given)
AC50 (Cytochrome P450 2C19): inconclusive

C[C@@](N)(C(=O)O)c1ccc(P(=O)(O)O)cc1
AC50 (Cytochrome P450 1A2): 39.8 µM (inconclusive)

O=C(c1c[nH]c(C(=O)C(Cl)(Cl)Cl)c1)c1ccc(F)cc1Cl
AC50 [1]: 13 µM (active)
EC50 (Protein RecA): 4.49 µM (active)

CC1(C)CCC(C)(C)c2c1ccc(O)c2Cc1c(O)ccc2c1C(C)(C)CCC2(C)C
AC50 (Cytochrome P450 1A2): 5.01 µM (inconclusive)

CCOc1ccc(N(C(C)C(=O)N/N=C(\C)c2cccc(NC(=O)c3ccccc3)c2)S(C)(=O)=O)cc1 (stereo not given)
AC50 (Cytochrome P450 1A2): 14.1 µM (inconclusive)

CN1CCC(N(C)S(=O)(=O)c2ccc(NC(=O)COc3cccc(Cl)c3)cc2)CC1
EC50 [2]: 0.268 µM (active)
EC50 [3]: > 30 µM (not active)

O=C1c2ccccc2C(=O)N1CCSC(=S)N1CCOCC1
AC50 (Cytochrome P450 1A2): 3.16 µM (inconclusive)

O=[N+]([O-])c1ccc2ncccc2c1CCc1c([N+](=O)[O-])ccc2ncccc12
AC50 (Cytochrome P450 1A2): 3.16 µM (inconclusive)

Cn1cc(CN2CCCC(CO)(Cc3ccccc3)C2)c2ccccc21 (stereo not given)
EC50 [2]: 0.62 µM (active)
EC50 [3]: > 60 µM (not active)

CC(C)CCN1CCN(C2CCN(c3ccc4c(c3)OCO4)CC2)CC1CCO (stereo not given)
EC50 [2]: 1.56 µM (active)
EC50 [3]: > 60 µM (not active)

COCCn1c(C(=O)N2CCCC2)cc2c1C[C@H]1CN(C(=O)c3ccccc3)[C@@](Cc3ccc(F)cc3)(C(=O)OC)[C@@H]21
AC50 (Cytochrome P450 2C19; read-out: AC50): 25.1 µM (inconclusive)
AC50 (Cytochrome P450 1A2): 31.6 µM (inconclusive)

CCNC(=O)c1ccc(-n2nc(C)cc2-c2ccccc2)cc1
AC50 (Cytochrome P450 1A2): 14.1 µM (inconclusive)

CC(C)CN1CCCC(N2CCN(c3cccc(Cl)c3)CC2)C1 (stereo not given)
EC50 [2]: 3.19 µM (active)
EC50 [3]: > 60 µM (not active)

Cc1ccc(C)c(/N=C2\C(Cl)=C(O)OC2OC(=O)c2ccco2)c1 (stereo not given)
AC50 [1]: 20 µM (active)
EC50 (Protein RecA): 9.37 µM (active)

Cc1ccc(C2C(C#N)=C(N)Oc3n[nH]c(-c4cccs4)c32)cc1 (stereo not given)
AC50 [1]: 4.21 µM (active)
EC50 (Protein RecA): 1.12 µM (active)
